Assay results: patent publication US11622990B2, “VAP polypeptide and use thereof in preparation of drug for targeted diagnosis and treatment of tumor” (FUDAN UNIVERSITY, priority 2016, dated 2023)
Ends that are not written are not given here.

Tests used:
intracranial U87 tumor = test: Anti-glioblastoma efficacy test of intracranial glioma (survival); format: in vivo, nude mice
Protocol: After the nude mice was anesthetized and fixed with stereotaxic apparatus, intracranial U87 tumor bearing model was established on nude mice by implanted with U87 cells (5×10^5 cells dispersed in 5 μL of PBS buffer for each mouse) in the logarithmic growth phase into the right striatum (0.6 mm in front of […], 1.8 mm in the lateral direction, and 3 mm in depth). The status of naked mice was observed regularly. […] The total dose of DOX was 10 mg/Kg except 2.5 mg/Kg for low dose and 5 mg/kg for medium dose. The ^DVAP dose was the amount of ^DVAP contained in the high dose of ^DVAP-DOX. The survival time of mice were recorded (FIG. 24).

[1] = Serum stability of VAP peptides in mouse serum; format: in vitro ADME; conditions: 50% mouse serum, 37° C., after 2 h incubation
Protocol: At 0 and 15 min, 0.5, 1, 2 and 4 h, 100 μL solution was taken out and 20 μL trichloroacetic acid (TCA) was added to precipitate protein of the serum, after standing for 20 min at 4° C., the solution was centrifuged at 12,000 rpm for 10 min. 20 μL supernatant was taken for HPLC analysis.

GRP78 protein [2] = target: T1, GRP78 protein (Homo sapiens, UniProt P11021); test: Binding activity of VAP to GRP78 by surface plasmon resonance (Biacore); conditions: SPR, GRP78 coupled to CM5 chip
T1 sequence (P11021 19-654): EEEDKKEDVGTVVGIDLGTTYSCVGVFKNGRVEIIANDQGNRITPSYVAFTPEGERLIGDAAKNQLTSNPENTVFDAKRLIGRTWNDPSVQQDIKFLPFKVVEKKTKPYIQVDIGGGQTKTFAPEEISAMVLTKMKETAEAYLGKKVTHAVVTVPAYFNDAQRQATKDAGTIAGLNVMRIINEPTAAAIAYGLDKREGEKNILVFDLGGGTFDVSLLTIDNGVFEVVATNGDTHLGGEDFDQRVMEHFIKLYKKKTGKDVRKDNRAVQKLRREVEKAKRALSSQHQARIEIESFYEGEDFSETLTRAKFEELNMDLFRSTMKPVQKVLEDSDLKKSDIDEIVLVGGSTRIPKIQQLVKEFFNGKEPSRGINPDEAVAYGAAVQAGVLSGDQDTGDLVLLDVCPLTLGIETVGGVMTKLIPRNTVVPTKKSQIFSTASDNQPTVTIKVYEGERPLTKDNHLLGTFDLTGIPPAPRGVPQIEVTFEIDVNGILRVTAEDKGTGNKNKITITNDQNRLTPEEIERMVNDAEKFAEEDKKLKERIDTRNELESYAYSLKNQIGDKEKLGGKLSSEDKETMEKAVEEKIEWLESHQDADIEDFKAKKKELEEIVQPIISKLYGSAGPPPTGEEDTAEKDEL
Protocol: Pre-binding analysis was performed by the biacore system, and pH 5.0 was selected as the optimal pH for GRP78 binding to the CMS chip. […] The samples were injected from low to high concentration.

GRP78 protein [3] = target: T1, GRP78 protein; test: VAP mutual competition inhibition test on U87 cells (flow cytometry); format: cell-based; parameters: saturate the receptor protein on the cell surface; endogenous in cells; host or cells: U87 glioma cells; conditions: 4° C., unlabeled peptide before fluorescein-labeled peptide
Protocol: U87 cells were digested by trypsin and transferred to EP tubes, washed with PBS three times to remove trypsin, pretreated at 4° C. for 20 min. The prepared peptide solution (non-fluorescent label) was also placed at 4° C. for low temperature pretreatment, then the peptide solution was mixed with the cells and shocked for 2 h to saturate the receptor protein on the cell surface. Then the fluorescein-labeled peptide solution was added.

residual percentage of intact polypeptide (degradation) [1] | Kd value (dissociation) (GRP78 protein [2]) [s⁻¹] | competitive inhibition between VAP peptides (GRP78 protein [3]) | Kd (GRP78 protein [2]) [µM] | Molecule | mean survival time (intracranial U87 tumor; total dose of DOX 10 mg/Kg (high dose), tail vein, days 10, 13, 16, 19, 22) [days] | AUC0-6h (FIGS. 25A-25B) [mg·h/L] | MRT0-6h (FIGS. 25A-25B) [h] | T1/2 (FIGS. 25A-25B) [h] | mean survival time (intracranial U87 tumor; ^DVAP alone, amount contained in the high dose of ^DVAP-DOX) [days]
 |  |  |  | COc1cccc2c1C(=O)c1c(O)c3c(c(O)c1C2=O)C[C@@](O)(C(=O)CO)C[C@@H]3O[C@H]1C[C@H](N)[C@H](O)[C@H](C)O1 [DOX, doxorubicin] | 36 | 7.976 ± 1.515 | 1.836 ± 0.695 | 2.131 ± 0.646 | 
hardly degraded | 0.02826 | completely inhibit each other | 5.22 | CC(C)[C@@H](NC(=O)[C@@H](CCCNC(=N)N)NC(=O)[C@H](NC(=O)[C@@H](CC(N)=O)NC(=O)[C@H](N)CO)[C@H](C)O)C(=O)N[C@H](C)C(=O)N1CCC[C@@H]1C(=O)O [^SVAP] |  |  |  |  | 
completely degraded | 0.01898 | completely inhibit each other |  | SNTRVAP [^LVAP, reference compound] |  |  |  |  | 

Molecule | residual percentage of intact polypeptide (degradation) [1] | Kd value (dissociation) (GRP78 protein [2]) [s⁻¹] | competitive inhibition between VAP peptides (GRP78 protein [3]) | Kd (GRP78 protein [2]) [µM] | mean survival time (intracranial U87 tumor; total dose of DOX 10 mg/Kg (high dose), tail vein, days 10, 13, 16, 19, 22) [days] | AUC0-6h (FIGS. 25A-25B) [mg·h/L] | MRT0-6h (FIGS. 25A-25B) [h] | T1/2 (FIGS. 25A-25B) [h] | mean survival time (intracranial U87 tumor; ^DVAP alone, amount contained in the high dose of ^DVAP-DOX) [days]
CC(C)[C@@H](NC(=O)[C@@H](C)NC(=O)[C@H]1CCCN1)C(=O)N[C@H](CCCNC(=N)N)C(=O)N[C@@H](C(=O)N[C@H](CC(N)=O)C(=O)N[C@H](CO)C(=O)O)[C@H](C)O [^DVAP] | hardly degraded | 0.02091 | completely inhibit each other |  |  |  |  |  | 45.5
